Laboratory results from patent US20170165317A1, “METHOD FOR MITIGATING OR ALLEVIATING SYNAPTIC AND COGNITIVE DEFICITS” (Trustees of Dartmouth College, priority 2013, published 2017).
Square brackets hold non-standard residues; d marks the D form. Peptide text beside a SMILES is read from it. * marks the point of attachment. ξ: configuration not given here. Myristoyl = CCCCCCCCCCCCCC(=O)*; dThr(3ξ) = CC(O)[C@@H](N)C(=O)O; Ile(3ξ) = CCC(C)[C@H](N)C(=O)O

Key:
APP/PS1 mice = assay: Novel object location task after i.c.v. infusion by osmotic minipump; type: in vivo, mouse; conditions: APP/PS1 mice, peptide 2 mM in pump, i.c.v. 3-4 weeks; p=0.027 vs vehicle-infused APP/PS1; recognition index similar to wild-type
Method: APP/PS1 and wild-type mice were anesthetized with isofluorane, and i.c.v. delivery cannulas (brain alzet kit III) were implanted with a stereotaxic frame (KOPF Instruments) at the following coordinates according to the bregma: AP, −0.5 mm; ML, 1 mm; and DV, −2.2 mm. Osmotic minipumps (Alzet) were filled with artificial cerebrospinal fluid (aCSF) with or without PTEN inhibitor VO-OHpic (2.5 μM) and equilibrated in 0.9% NaCl at 37° C. for 48 hours. They were attached to the i.c.v. cannula tubing and subcutaneously implanted at the back. After 21 days, behavioral testing was started as described herein. One month after implantation, mice were sacrificed and the brains were sliced stained with Nissl to verify the location of the cannula. Animal manipulation and data analysis was carried out blind with respect to genotype and treatment.
Novel-Object Location. This assay was chosen because it is not intrinsically stressful. This factor, in mice, crucially affects cognitive performance in other spatial learning paradigms (e.g., Morris water maze). The memory tests were composed of three phases—“habituation”, “sample” and “choice” trials. Mice were first habituated individually to an empty open-field box (35×35×15 high cm) for 30 minutes. A sample trial (object exposure) consisted of placing a mouse into the test box which contained two identical objects. […] A recognition index was calculated by dividing the total time spent exploring the displaced object by the total time spent exploring both objects during the test session. […]
It was posited that if early Aβ-induced cognitive impairment results from a general synaptic bias toward LTD events (Selkoe (2002) Science 298:789-791), dampening this form of synaptic plasticity might prevent cognitive decay. Therefore, it was determined whether in vivo inhibition of PTEN, a lipid phosphatase that is involved in LTD (Jurado, et al. (2010) EMBO J. 29:2827-2840), would rescue cognitive deficits in APP/PS1 mice. […]

[1] = test system: hippocampal CA3 and CA1 cells from acute slices; assay: fEPSP input-output curve (basal synaptic transmission) in acute hippocampal slices exposed to protofibrillar Aβ42; type: cell-based, mice; conditions: for basal synaptic transmission in the absence of Aβ treatment: peptide alone; for Aβ-induced synaptic depression: slices preincubated with peptide 1 hour before synthetic protofibrillar Aβ
Method: Mice were anesthetized with sodium pentothal (20 mg/kg ip) and decapitated. The brain was rapidly removed to ice-cold, oxygenated, dissection solution. Coronal slices (300 μm) were made with a vibratome (LEICA VT1200S) and slices were moved to a recovery chamber containing aCSF at room temperature for at least 1.5 hour before recording.
(§1) A concentric bipolar platinum-iridium stimulation electrode and a low-resistance glass recording microelectrode filled with aCSF (3-4 MΩ resistance) were placed in CA1 stratum radiatum to record the extracellular field excitatory postsynaptic potentials (fEPSPs). For each slice, an input-output curve was recorded to compare basal synaptic transmission at different conditions. This curve was also used to set the baseline fEPSP at ≈30% (for LTP experiments) or ≈50% (for LTD experiments) of maximal slope. Baseline stimulation was delivered every 15 seconds (0.01 ms duration pulses) for at least 20 minutes before beginning the experiment to ensure stability of the response. LTP was induced by using θ-burst stimulation (4 pulses at 100 Hz, with the bursts repeated at 5 Hz and each tetanus including three 10-burst trains separated by 15 seconds). LTD was induced using 900 pulses at 1 Hz. Responses were recorded for 1 hour after induction of LTP or LTD.
Dissection solution (employed for slicing) composition: 10 mM D-glucose, 4 mM KCl, 26 mM NaHCO3, 233.7 mM sucrose, 5 mM MgCl2, 1:1000 Phenol Red. Artificial CSF (employed for recovery and recording) composition: 119 mM NaCl, 2.5 mM KCl, 1 mM NaH2PO4, 11 mM glucose, 1.2 mM MgCl2, 2.5 mM CaCl2. Osmolarity was adjusted to […].
For the first approach, protofibrillar Aβ was prepared by promoting aggregation under high-salt conditions (258 μM Aβ42, room temperature incubation (Jan, et al. (2010) Nat. Protoc. 5:1186-1209). The kinetics of Aβ42 aggregation were followed by thioflavin T fluorescence and SDS-PAGE western blot analysis with the N-terminal anti-Aβ antibody 6E10. Also, the heterogeneous nature of these Aβ42 assemblies was evidenced by electron microscopy. Synaptic function was assessed by electrophysiological recordings of field excitatory postsynaptic potential (fEPSPs) between hippocampal CA3 and CA1 cells from acute slices prepared from 5-month-old mice. The results indicated a ≈60% decrease in the magnitude of synaptic transmission (input-output curve) when slices were incubated for 2 hours in aCSF containing pathogenic protofibrillar Aβ42 species (1 μM). This decrease in the basal synaptic transmission was prevented when Aβ was added to slices that were preincubated with the PTEN inhibitor (50 nM VO-OHpic) for 1 hour (VO-OHpic and Aβ were also present in the perfusion solution during electrophysiological recordings). VO-OHpic alone had no effect on basal synaptic transmission. […] The potency and specificity of this inhibitor have been documented previously (Rosivatz, et al. (2006) ACS Chem. Biol. 1:780-790).
The effect of these peptides on Aβ-treated neurons was subsequently tested.

acute mice slices = assay: LTD of fEPSPs in acute hippocampal slices; type: cell-based; conditions: peptide 10 μM, 1-2.5 hours incubation
Method: as §1
It was posited that the PTEN-PDZ peptide would saturate PDZ interaction sites of PTEN, consequently preventing anchoring of PTEN to PDZ proteins, and in this manner it would prevent LTD.

Aβ42 = target: T1, Aβ42 (Homo sapiens, UniProt P05067); assay: Thioflavin-T fluorescence assay of Aβ42 aggregation; type: biochemical; conditions: 50 nM VO-OHpic or 15 nM bPV(HOpic), 37° C.
T1 construct: Lyophilized Aβ42 peptide was purchased from Keck Facility at Yale University; purchased Keck Facility at Yale University; host or cells: synthetic peptide
T1 sequence (P05067 672-713): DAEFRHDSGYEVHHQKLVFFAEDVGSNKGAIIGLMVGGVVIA
Method: Freshly prepared Aβ42 was prepared as described for protofibrillar Aβ42. The Thioflavin-T (ThT) assay was carried out at 37° C., within a dark chamber in a 96-well plate. Each well contained 100 ng/μL of Aβ42, 20 μM ThT and 50 nM VO-OHpic or 15 nM bPV(HOpic). Fluorescence (λex=450 nm; λem=485 nm) was followed over time in a FLUOSTAR OPTIMA (BMG LabTech) fluorescence spectrophotometer. Samples were run in triplicates. […] Thus, the observed rescue of basal synaptic transmission, LTP and cognition, with VO-OHpic was not likely due to an altered aggregation state of Aβ upon PTEN inhibition.

[2] = test system: APPswe/lnd-expressing neurons; assay: Paired whole-cell recording of AMPAR-mediated EPSCs in APPswe/lnd-expressing CA1 neurons of organotypic hippocampal slices; type: cell-based, rat; conditions: 15 nM bPV(HOpic) or 50 nM VO-OHpic during expression
Method: The effect of recombinant protein expression on synaptic transmission was evaluated by simultaneous double whole-cell recordings from pairs of nearby infected and uninfected CA1 neurons, under voltage clamp, while stimulating presynaptic Schaffer collateral fibers (under this configuration, recombinant proteins are expressed exclusively in the postsynaptic neuron).
The different versions of APP (APPwt, APPswe/lnd APPMV) and EGFP were co-expressed using an internal ribosomal entry site (IRES) construct. The EGFP-tagged versions of PTEN have been described (Jurado, et al. (2010) EMBO J. 29:2827-2840). All constructs were prepared in pSinRep5 for expression using Sindbis virus. Recombinant proteins were expressed in hippocampal CA1 pyramidal neurons from organotypic slice cultures. Organotypic hippocampal slices were prepared from postnatal day 5-7 rats and cultured during 6-8 days.
The external solution (aCSF) contained 119 mM NaCl, 2.5 mM KCl, 1 mM NaH2PO4, 11 mM glucose, 26 mM NaHCO3, 4 mM MgCl2, 4 mM CaCl2, 100 μM picrotoxin and 2 μM 2-chloroadenosine, pH 7.4, and was gassed with 95% O2 and 5% CO2. […] Bipolar stimulating electrodes were placed over Schaffer collateral fibers between 250 and 300 μm from the CA1 recorded cells, and synaptic responses were evoked with single voltage pulses (200 μs, up to 30 V). […]

Row | SMILES | spatial learning task (novel object location, recognition index) (APP/PS1 mice) | basal synaptic transmission in the absence of Aβ treatment [1] | Aβ-induced synaptic depression [1] | Aβ-induced synaptic depression ([1]; listed as N-myristoyl-QHSQITKV) | LTD (fEPSP slope 50-60 minutes after induction) (acute mice slices) | Aβ42 aggregation (ThT fluorescence) (Aβ42) | AMPAR-mediated EPSCs in APPswe/lnd-expressing neurons relative to uninfected cells [2]
1 | CCCCCCCCCCCCCC(=O)N[C@@H](CCC(N)=O)C(=O)N[C@H](Cc1c[nH]cn1)C(=O)N[C@@H](CO)C(=O)N[C@H](CCC(N)=O)C(=O)N[C@H](C(=O)N[C@@H](C(=O)N[C@@H](CCCCN)C(=O)N[C@@H](C(=O)O)C(C)C)C(C)O)C(C)CC (stereo partly shown) [PTEN-PDZ peptide, N-myristoyl-QHSQITKV] (Myristoyl-Q[dH]S[dQ][Ile(3ξ)][dThr(3ξ)]K[dV]-OH) | significant improvement | neither peptide altered basal synaptic transmission | prevented synaptic depression | blocks Aβ-induced synaptic depression | completely blocked LTD | – | –
2 | O=C1C=C/C(=C(/[O-])O)N=C1.[K+].[O-][O-].[O-][O-].[O]=[V] [bPV(HOpic)] | – | – | – | – | – | does not alter Aβ42 aggregation | no longer depressed
3 | CCCCCCCCCCCCCC(=O)N[C@@H](CO)C(=O)N[C@@H](C(=O)N[C@@H](Cc1c[nH]cn1)C(=O)N[C@@H](C(=O)N[C@H](C(=O)N[C@H](CCC(N)=O)C(=O)N[C@@H](CCCCN)C(=O)N[C@H](CCC(N)=O)C(=O)O)C(C)CC)C(C)O)C(C)C (stereo partly shown) [scrambled peptide, N-myristoyl-SVHTIQKQ] (Myristoyl-S[dV]H[dThr(3ξ)][Ile(3ξ)][dQ]K[dQ]-OH) | – | neither peptide altered basal synaptic transmission | did not | – | did not have any effect | – | –
